The values that follow come from patent publication US9708305B2, “Substituted 1,2,3,4-tetrahydroisoquinoline derivatives for the treatment of hormone-dependent diseases” (UNIVERSITÉ LAVAL, priority 2013, dated 2017).

In one test the test system is MCF-7 (ER+) cells. Kind of test: Proliferative (estrogenic) activity on MCF-7 (ER+) cells. Type of test: cell-based. The settings on record: 7 days; for proliferation of MCF-7 (ER+) cells: 1 μM, control 100%. Here is the method: The next step was to determine the presence or absence of estrogenic activity. To do so, cell proliferative assays were carried out on MCF-7 cells. […] Phenols of the corresponding sulfamate library 3-EO and 4-EO are referred to as library 3′-EO and library 4′-EO, respectively.
This cell assay was carried out according to a procedure previously described to determine the estrogenic activity of enzyme inhibitors on the growth of estrogen-sensitive MCF-7 cells.^77 All chemicals tested were first dissolved in DMSO and subsequent dilutions were done in the proper cell culture media. The final concentration of DMSO in the culture medium was 0.1% or less. 3-(4,5-dimethylthiazol-2-yl)-5-(3-carboxymethoxyphenyl)-2-(4-sulfophenyl)-2-H-tetrazolium (MTS) was used as an indirect colorimetric measurement of cell proliferation according to the manufacturer's instructions (Promega, Madison, Wis.). At the end of the treatments, 20 μL of MTS solution was added to each well (100 μL) and the MCF-7 cells were incubated 4 h at 37° C. The absorbance at 490 nm was then measured with a Thermo max microplate reader (Molecular Devices, Sunnyvale, Calif.). The control (culture media+DMSO) is set to 100% of cell proliferation.

The subject of test [1] is alkaline phosphatase activity in Saos-2 cells. Briefly: Alkaline phosphatase assay (Saos-2 cells), phenol library. Format: cell-based. The settings on record: 1 nM; control (no treatment) fixed at 100%. Here is the method: We also investigated the effect of selected phenol derivatives on alkaline phosphatase activity in Saos-2 cells (FIG. 13B).
Saos-2 cells were used similarly as reported in the cell proliferation assay. The cells were seeded at a density of 2 000 cells/well and treated for 3 days with each compound to be tested. The alkaline phosphatase (ALP) activity was measured using the Sensolyte® pNPP Alkaline Phosphatase Assay Kit *Colorimetric* (AnaSpec, Freemont, Calif.) following the manufacturer's protocol. Briefly, after three days of treatment, the cells were washed twice with washing buffer (provided with the kit) and lysed with 0.2% Triton X-100. The cell lysates were centrifuged and the supernatants were used to determine ALP activity. The supernatants were deposed in a 96-well plate and incubated for 30 minutes with a p-nitrophenyl phosphate solution (provided with the kit). The absorbance at 405 nm was measured with a Thermo max microplate reader (Molecular Devices, Sunnyvale, Calif.). The control (culture media+DMSO) is set to 100% of alkaline phosphatase activity.

Each structure is given as a SMILES string.

`O=C(c1ccc(CN(CCO)Cc2ccccc2)cc1)N1CCc2ccc(O)cc2C1` [3′-EO-02]: the “proliferation of MCF-7 (ER+) cells” value in the test on MCF-7 (ER+) cells came out at 135%.

On to `CN(C)CCCN(Cc1ccccc1)Cc1ccc(C(=O)N2CCc3ccc(O)cc3C2)cc1` [3′-EO-05], for which, in the test with MCF-7 (ER+) cells, the “proliferation of MCF-7 (ER+) cells” value was found to be 126%. Turning to `O=C(c1ccc(CN(Cc2ccccc2)Cc2ccco2)cc1)N1CCc2ccc(O)cc2C1` [3′-EO-11], the “stimulation of MCF-7 cell growth” value in the test on MCF-7 (ER+) cells (0.01 μM, 0.1 μM and 1 μM) is given as “did not stimulate”. `CCN(Cc1ccc(C(=O)N2CCc3ccc(O)cc3C2)cc1)Cc1cccc(Br)c1` [3′-EO-12]: the “proliferation of MCF-7 (ER+) cells” value with MCF-7 (ER+) cells turned out to be 118%.

Regarding `CCN(Cc1ccc(Br)cc1)Cc1ccc(C(=O)N2CCc3ccc(O)cc3C2)cc1` [3′-EO-13], the “proliferation of MCF-7 (ER+) cells” value with MCF-7 (ER+) cells was 177%.

With `CCN(Cc1ccc(F)cc1)Cc1ccc(C(=O)N2CCc3ccc(O)cc3C2)cc1` [3′-EO-17], the “ALP activity in Saos-2 cells” value in test [1] stood at 152%. `CC/C(=C(\c1ccccc1)c1ccc(OCCN(C)C)cc1)c1ccccc1` [tamoxifen, reference compound]: in test [1], the “ALP activity in Saos-2 cells” value amounted to 143%.
